Molecular target: T1, tyrosyl tRNA synthetase (TyrRS) (Homo sapiens, UniProt P54577)
T1 sequence (P54577 1-528): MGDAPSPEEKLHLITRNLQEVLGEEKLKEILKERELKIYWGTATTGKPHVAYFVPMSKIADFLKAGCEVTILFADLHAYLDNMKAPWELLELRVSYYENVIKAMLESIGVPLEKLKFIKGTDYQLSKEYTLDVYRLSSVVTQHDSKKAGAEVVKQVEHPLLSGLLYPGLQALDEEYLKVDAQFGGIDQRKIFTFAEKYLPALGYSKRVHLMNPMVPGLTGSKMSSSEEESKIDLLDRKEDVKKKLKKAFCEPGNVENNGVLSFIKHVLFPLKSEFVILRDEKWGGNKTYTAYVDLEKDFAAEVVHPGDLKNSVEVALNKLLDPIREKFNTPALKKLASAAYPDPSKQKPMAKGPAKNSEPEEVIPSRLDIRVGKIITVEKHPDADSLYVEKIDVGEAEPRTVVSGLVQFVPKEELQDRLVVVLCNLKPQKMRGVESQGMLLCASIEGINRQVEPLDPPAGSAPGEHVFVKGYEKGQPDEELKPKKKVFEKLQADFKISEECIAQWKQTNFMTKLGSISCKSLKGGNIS
Experiment: X-ray co-crystal structure
Assay type: biochemical

## Oc1ccc(/C=C/c2cc(O)cc(O)c2)cc1 [RSV, resveratrol]
  Ki: 22 µM
